For orientation: IC50 means the midpoint of a concentration-inhibition curve. A lower IC50 goes with greater potency in that assay.

This passage reports IC50 results from patent US10150767B2, “Therapeutic compounds and uses thereof” (priority 2014, dated 2018).

BRD9, sequence (Q9H8M2 134-239 limits assumed): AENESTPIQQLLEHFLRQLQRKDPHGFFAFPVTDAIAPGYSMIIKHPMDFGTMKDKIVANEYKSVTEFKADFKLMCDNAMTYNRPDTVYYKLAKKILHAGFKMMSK

The target of the first experiment is BRD4(BD1) (Homo sapiens (Human), UniProt O60885). Kind of experiment: BRD4 AlphaLisa binding assay. The conditions noted are these: biotinylated H4-tetraacetyl peptide. An excerpt:
IC50 Measurements for Inhibitors Using BRD4 AlphaLisa Binding Assay
In general terms: Alpha assays give light when donor and acceptor beads are brought close together.
For the compound `Cn1cc(-c2cccc(C#N)c2)c2cc[nH]c2c1=O` [Example 23, 3-(6-methyl-7-oxo-1H-pyrrolo[2,3-c]pyridin-4-yl)benzonitrile], the IC50 was found to be 150 nM.

For `CN(C(=O)c1ccc(-c2cn(C)c(=O)c3[nH]ccc23)cc1)c1ccccc1` [Example 36, N-methyl-4-(6-methyl-7-oxo-1H-pyrrolo[2,3-c]pyridin-4-yl)-N-phenyl-benzamide], the concentration for half-maximal inhibition (IC50) stood at 340 nM.

Compound `Cn1cc(-c2ccc3c(c2)N2CCCC2CC(=O)N3)c2cc[nH]c2c1=O` (centres unmarked) [Example 15, 2-(6-methyl-7-oxo-1H-pyrrolo[2,3-c]pyridin-4-yl)-5,7,7a,8,9,10-hexahydropyrrolo[2,1-d][1,5]benzodiazepin-6-one] showed an IC50 of 81 nM.

For the compound `Cn1cc(-c2ccc(C(=O)N3CCC(C(N)=O)CC3)cc2)c2cc[nH]c2c1=O` [Example 33, 1-[4-(6-methyl-7-oxo-1H-pyrrolo[2,3-c]pyridin-4-yl)benzoyl]piperidine-4-carboxamide], the half-inhibitory concentration (IC50) was 260 nM.

`Cn1cc(-c2ccc3c(c2)CCCN3C(=O)OC(C)(C)C)c2cc[nH]c2c1=O` [Example 4, tert-butyl 6-(6-methyl-7-oxo-1H-pyrrolo[2,3-c]pyridin-4-yl)-3,4-dihydro-2H-quinoline-1-carboxylate] had an IC50 of 110 nM.

Regarding `Cn1cc(-c2ccc(C(=O)N3CC(F)C3)cc2)c2cc[nH]c2c1=O` [Example 27, 4-[4-(3-fluoroazetidine-1-carbonyl)phenyl]-6-methyl-1H-pyrrolo[2,3-c]pyridin-7-one], the IC50 was 84 nM.

As for `CC(=O)N1CCN(C(=O)c2ccc(-c3cn(C)c(=O)c4[nH]ccc34)cc2)CC1` [Example 32, 4-[4-(4-acetylpiperazine-1-carbonyl)phenyl]-6-methyl-1H-pyrrolo[2,3-c]pyridin-7-one], the IC50 was determined as 320 nM.

`Cn1cc(-c2ccc(C(=O)Nc3cccnc3)cc2)c2cc[nH]c2c1=O` [Example 34, 4-(6-methyl-7-oxo-1H-pyrrolo[2,3-c]pyridin-4-yl)-N-(3-pyridyl)benzamide] returned an IC50 of 51 nM.

Consider `Cn1cc(-c2ccc3c(c2)N2C(=O)CCC2C(=O)N3)c2cc[nH]c2c1=O` (centres unmarked) [Example 9, 8-(6-methyl-7-oxo-6,7-dihydro-1H-pyrrolo[2,3-c]pyridin-4-yl)-3,3a-dihydropyrrolo[1,2-a]quinoxaline-1,4(2H,5H)-dione], for which the IC50 came out at 310 nM.

On to `CC1CC(=O)Nc2ccc(-c3cn(C)c(=O)c4[nH]ccc34)cc2N1` (centres unmarked) [Example 13, 4-methyl-7-(6-methyl-7-oxo-1H-pyrrolo[2,3-c]pyridin-4-yl)-1,3,4,5-tetrahydro-1,5-benzodiazepin-2-one], for which the IC50 came to 170 nM.

As for `Cn1cc(-c2ccc(C(=O)N3CCCC3)cc2)c2cc[nH]c2c1=O` [Example 29, 6-methyl-4-[4-(pyrrolidine-1-carbonyl)phenyl]-1H-pyrrolo[2,3-c]pyridin-7-one], the IC50 was found to be 280 nM.

`Cn1cc(-c2cccc(C(N)=O)c2)c2cc[nH]c2c1=O` [Example 21, 3-(6-methyl-7-oxo-1H-pyrrolo[2,3-c]pyridin-4-yl)benzamide] showed an IC50 of 180 nM.

`Cn1cc(-c2ccc3c(c2)NC(c2cccs2)CC(=O)N3)c2cc[nH]c2c1=O` (centres unmarked) [Example 17, 7-(6-methyl-7-oxo-1H-pyrrolo[2,3-c]pyridin-4-yl)-4-(2-thienyl)-1,3,4,5-tetrahydro-1,5-benzodiazepin-2-one] had an IC50 of 58 nM.

In turn, `CC1Nc2cc(-c3cn(C)c(=O)c4[nH]ccc34)ccc2NC1=O` (centres unmarked) [Example 10, 3-methyl-6-(6-methyl-7-oxo-1H-pyrrolo[2,3-c]pyridin-4-yl)-3,4-dihydro-1H-quinoxalin-2-one] showed a 50% inhibitory concentration (IC50) of 110 nM.

With `CC1CCN(C(=O)c2ccc(-c3cn(C)c(=O)c4[nH]ccc34)cc2)CC1` [Example 31, 6-methyl-4-[4-(4-methylpiperidine-1-carbonyl)phenyl]-1H-pyrrolo[2,3-c]pyridin-7-one], the half-inhibitory concentration (IC50) stood at 170 nM.

`CC(C)c1nc2cc(-c3cn(C)c(=O)c4[nH]ccc34)ccc2[nH]c1=O` [Example 14, 3-isopropyl-6-(6-methyl-7-oxo-1H-pyrrolo[2,3-c]pyridin-4-yl)-1H-quinoxalin-2-one] yielded an IC50 of 110 nM.

`CN(CC#N)C(=O)c1ccc(-c2cn(C)c(=O)c3[nH]ccc23)cc1` [Example 38, N-(cyanomethyl)-N-methyl-4-(6-methyl-7-oxo-1H-pyrrolo[2,3-c]pyridin-4-yl)benzamide]: the 50% inhibitory concentration (IC50) stood at 200 nM.

As for `Cn1cc(-c2ccccc2)c2cc[nH]c2c1=O` [Example 1, 6-methyl-4-phenyl-1H-pyrrolo[2,3-c]pyridin-7(6H)-one], the IC50 was 540 nM.

With `Cn1cc(-c2ccc3c(c2)CC(=O)N3)c2cc[nH]c2c1=O` [Example 2, 6-methyl-4-(2-oxoindolin-5-yl)-1H-pyrrolo[2,3-c]pyridin-7-one], the IC50 was 210 nM.

In turn, `Cn1cc(-c2ccc(CO)cc2)c2cc[nH]c2c1=O` [Example 25, 4-[4-(hydroxymethyl)phenyl]-6-methyl-1H-pyrrolo[2,3-c]pyridin-7-one] returned an IC50 of 710 nM.

Another experiment has as its target BRD9 (Homo sapiens (Human), UniProt Q9H8M2). Kind of experiment: BRD9 AlphaLisa binding assay. Particulars: biotinylated H4-tetraacetyl peptide. The method, then: After 20 minutes incubation at room temperature AlphaLisa Streptavidin Acceptor Beads (Perkin-A[…]) and AlphaLisa Nickel donor beads (Perkin AS 10 ID) were added to a final concentration of 15 ug/mL each.
The compound `Cn1cc(-c2ccc(NC(=O)OC(C)(C)C)cc2)c2cc[nH]c2c1=O` [Example 6, tert-butyl N-[4-(6-methyl-7-oxo-1H-pyrrolo[2,3-c]pyridin-4-yl)phenyl]carbamate] came in with an IC50 of 85 nM.

`CCCn1cc(-c2cccc(C(=O)N(C)C)c2)c2cc[nH]c2c1=O` [Example 19, N,N-dimethyl-3-(7-oxo-6-propyl-1H-pyrrolo[2,3-c]pyridin-4-yl)benzamide] showed a concentration for half-maximal inhibition (IC50) of 238 nM.

As to `Cn1cc(-c2ccc(C(C)(C)O)cc2)c2cc[nH]c2c1=O` [Example 39, 4-[4-(1-hydroxy-1-methyl-ethyl)phenyl]-6-methyl-1H-pyrrolo[2,3-c]pyridin-7-one], the IC50 is 21 nM.

In turn, `CN1CCC(c2ccc(-c3cn(C)c(=O)c4[nH]ccc34)cc2)CC1` [Example 42, 6-methyl-4-[4-(1-methyl-4-piperidyl)phenyl]-1H-pyrrolo[2,3-c]pyridin-7-one] had an IC50 of 53 nM.

`CC1CNc2cc(-c3cn(C)c(=O)c4[nH]ccc34)ccc2NC1=O` (centres unmarked) [Example 11, 3-methyl-7-(6-methyl-7-oxo-1H-pyrrolo[2,3-c]pyridin-4-yl)-1,3,4,5-tetrahydro-1,5-benzodiazepin-2-one] came in with an IC50 of 31 nM.

In turn, `Cn1cc(-c2ccc3c(c2)NCCC(=O)N3)c2cc[nH]c2c1=O` [Example 12, 7-(6-methyl-7-oxo-1H-pyrrolo[2,3-c]pyridin-4-yl)-1,3,4,5-tetrahydro-1,5-benzodiazepin-2-one] registered a concentration for half-maximal inhibition (IC50) of 25 nM.

On to `Cn1cc(-c2ccc3c(c2)N(C(=O)OC(C)(C)C)CCC3)c2cc[nH]c2c1=O` [Example 5, tert-butyl 7-(6-methyl-7-oxo-1H-pyrrolo[2,3-c]pyridin-4-yl)-3,4-dihydro-2H-quinoline-1-carboxylate], for which the IC50 came to 130 nM.

Turning to `COCCNC(=O)c1ccc(-c2cn(C)c(=O)c3[nH]ccc23)cc1` [Example 3, N-(2-methoxyethyl)-4-(6-methyl-7-oxo-1H-pyrrolo[2,3-c]pyridin-4-yl)benzamide], the IC50 was determined as 24 nM.

`CC(C)(O)c1ccc(-c2cn(C3CC3)c(=O)c3[nH]ccc23)cc1` [Example 41, 6-cyclopropyl-4-(4-(2-hydroxypropan-2-yl)phenyl)-1H-pyrrolo[2,3-c]pyridin-7(6H)-one]: the IC50 was 110 nM.
